# Experimental data: patent publication US20240327320A1, “NOVEL ROUTES OF CHEMICAL SYNTHESIS OF 20S(OH)D3, 20S,25(OH)2D3, 20S,23S(OH)2D3, AND 20S,23R(OH)2D3 AND THEIR MODIFICATION OF THE IMMUNE ACTIVITY OF PBMCS” (United State Government as represen ted by the Department …, priority 2023, published 2024)
# Tests used:
# [1] = test system: Human epidermal keratinocytes (HEKn); test: Protein expression, immunofluorescence; assay type: cell-based; details: 48 h, FIG. 7C
# Procedure: HEKn were cultured until the third passage before treatment. Keratinocytes were plated in a 96-well plate and at 80% confluence, 10^-7 M secosteroids (or 0.1% ethanol control) were added and cells were incubated for 48 h. Cells were fixed and stained with anti-involucrin (1:20, GTX-14504; Genetex, Irvine, CA, USA) anti-CK10 (1:300, Santa Cruz Biotechnology), anti-catalase (1:200, Santa Cruz Biotechnology) or anti-CK14 antibody with Alexa Fluor® 488 (1:500, Santa Cruz Biotechnology) and imaged at 10× magnification in Cytation 5 reader as described before (Chaiprasongsuk A, et. al., (2020) Free Radic Biol Med 155 87-9845; Slominski A T, et. al., (2017) Sci Rep 7(1) 11434; Chaiprasongsuk A, et. al., (2020) Int J Mol Sci 21(24)). Nuclei were stained with blue DAPI. Fluorescence intensity was measured using the Cytation 5 reader and ImageJ, and data were analyzed using Graph Pad Prizm.
# FIG. 7C and FIG. 7D represent protein expression studies. Values are presented as percentage of fluorescence positive cells (FIG. 7C) or as mean fluorescence per cell (% of all cells (FIG. 7D). The values in FIG. 7D were calculated as mean green fluorescence vs DAPI blue fluorescence measured in ImageJ. Data are means±SD (n=3) and were analyzed using Student's t-test with p<0.05 (*), p<0.01 (**) or p<0.001 (***).
# [2] = test system: CD4 and CD8 T cells from human peripheral blood; test: T cell activation in PBMC, flow cytometry with TriMAP/FlowSOM; assay type: cell-based; details: 10^-7 M, 24 h, anti-CD3 and anti-CD28, compared to ethanol treated cells
# Procedure: Human peripheral blood mononuclear cells (PBMC) from two healthy individuals were obtained from a pre-existing respository. Their use was approved by the University of Alabama at Birmingham Institutional Review Board (Human Subject Assurance Number FWA00005960) as an exempt protocol #4 (Dr C. Raman, P.I.). […] Informed consent is waived in accord with 45CFR46.116 (d). In 48 well plates, 0.5×10^6 PBMC/well were cultured in RPMI1640 containing, 5% charcoal adsorbed FBS and antibiotics and T cells were activated using […] anti-CD3 (clone 145-2C11) and 1 μg/ml anti-CD28 (clone 37.51) for 24 h (Janjetovic Z, et. al., (2021) Endocrinology 162(1), Chaiprasongsuk A, et. al., (2020) Free Radic Biol Med 155 87-98, Slominski A T, et. al., (2011) Am J Physiol Cell Physiol 300(3) C526-41, McGuire D J, et. al., (2014) Eur J Immunol 44(4) 1137-42, Sestero C M, et. al., (2012) J Immunol 189(6) 2918-30). The culture was treated with 10^-7 M 20S(OH)D3, 20S,25(OH)2D3, 20S,23S(OH)2D3, 20S,23R(OH)2D3 or 1α,25(OH)2D3 (Sigma-Aldrich, St. Louis, MO, USA) dissolved in ethanol and diluted in culture medium at the same time of addition of anti-CD3 and anti-CD28. The vehicle control comprised of 0.1% ethanol. At the end of assay the cells were stained with antibodies to CD4 (clone RPA-T4, BV-421), CD19 (clone HB19, BV-510), CD14 (clone HCD14, Alexa 700), CD137 (clone 4B4-1, BV605), CD8a (clone RPA-T8, FITC), ICOS (clone C398.4A, PE/Dazzle), PD1 (clone NAT105, PE), CD80 (clone 2D10, PerCP/Cy5.5), OX40 (clone ACT35, PE/Cy7), CD69 (clone FN50, APC), HLA-DR (clone L243, APC/Fire 750). All antibodies were from Biolegend except anti-CD8 was from Thermo Fisher. The stained cells were analyzed using a CytoFLEX (Beckman Coulter) flow cytometer.
# For unbiased analysis of the multidimensional data, acomputational algorithm-based approaches was utilized (Quintelier K, et. al., (2021) Nature Protocols 16(8) 3775-3801). The flow cytometry standard (FCS) data files from each individual and treatment (two individuals, six treatments including ethanol, a total of 12 data files) were processed through the following workflow—compensation, gating on live cells, gating for single cells and subtraction of CD19+(B cells) and CD14+(monocytes). B cells and monocytes were removed from the analysis because only T cells (CD4+ and CD8+) are activated by anti-CD3 and anti-CD28. After these initial gating steps, a key word was added to each of the 12 FCS files, down sampled to 50,000 events/sample and concatenated. Down sampling ascertains that each sample is equally weighted, and concatenation ascertains that statistical analysis is applied equally. The concatenated files were first subjected to TriMAP analysis, a computational algorithm that clusters populations based on triplet relatedness followed by FlowSOM algorithm-based clustering (Quintelier K, et. al., (2021) Nature Protocols 16(8) 3775-3801). To perform these analyses, plugins within FlowJo (BD, CA, USA) were used.
# T cells in peripheral blood from two healthy individuals were activated with anti-CD3 and anti-CD28 in the absence (ethanol) or presence of 10^−7 M of each of the vitamin D3 secosteroids for 24 h. The cells were stained for lineage markers (CD4, CD8, CD19, CD14) and a panel of activation induced markers (CD69, ICOS, OX40, CD137, PD1, HLADR) and expression data were collected using a flow cytometer. The gating strategy was live, single cell followed by CD4 and CD8 T cell populations. […]
# [3] = literature, at the same doses; cited from earlier work
Structure (SMILES),"protein levels of involucrin, CK10, CK14, and catalase [1]","CD4 T cells of population 4 (down modulated CD4, increased CD69 and ICOS) [2]",calcemic activity / toxicity [3]
"C=C1CC[C@H](O)C/C1=C/C=C1\CCC[C@@]2(C)[C@H]1CC[C@@H]2[C@@](C)(O)C[C@H](O)CC(C)C [20S,23R(OH)2D3, (20S,23R)-20,23-Dihydroxyvitamin D3]","increasing the levels of involucrin, CK10, CK14, and catalase",,
"C=C1CC[C@H](O)C/C1=C/C=C1\CCC[C@@]2(C)[C@H]1CC[C@@H]2[C@@](C)(O)CCCC(C)(C)O [20S,25(OH)2D3, (20S)-20,25-Dihydroxyvitamin D3]","increasing the levels of involucrin, CK10, CK14, and catalase",fewer cells,
"C=C1CC[C@H](O)C/C1=C/C=C1\CCC[C@@]2(C)[C@H]1CC[C@@H]2[C@@](C)(O)C[C@@H](O)CC(C)C [20S,23S(OH)2D3, (20S,23S)-20,23-Dihydroxyvitamin D3]","increasing the levels of involucrin, CK10, CK14, and catalase",fewer cells,non-calcemic
"C=C1CC[C@H](O)C/C1=C/C=C1\CCC[C@@]2(C)[C@H]1CC[C@@H]2[C@@](C)(O)CCCC(C)C [20S(OH)D3, (20S)-20-Hydroxyvitamin D3]","increasing the levels of involucrin, CK10, CK14, and catalase",increased the proportion of cells with population 4 phenotype,non-calcemic
